Measurements reported in patent US20240116985A1, “STAPLED PEPTIDES AND METHODS THEREOF” (priority 2020, published 2024).
Values after ≈ are worked out from the molar mass of the structure shown. Like-named read-outs stand apart in the source and are kept apart here.

Assays:
[1] = target: T1, full-length beta-Catenin (Uniprot ID P35222) (Homo sapiens, UniProt P35222); assay: Fluorescence polarization IC50 (beta-catenin / 5FAM-TCF4 10-53 competition); type: binding
T1 construct: 10 nM full-length beta-Catenin (Uniprot ID P35222)
T1 sequence (P35222 1-781): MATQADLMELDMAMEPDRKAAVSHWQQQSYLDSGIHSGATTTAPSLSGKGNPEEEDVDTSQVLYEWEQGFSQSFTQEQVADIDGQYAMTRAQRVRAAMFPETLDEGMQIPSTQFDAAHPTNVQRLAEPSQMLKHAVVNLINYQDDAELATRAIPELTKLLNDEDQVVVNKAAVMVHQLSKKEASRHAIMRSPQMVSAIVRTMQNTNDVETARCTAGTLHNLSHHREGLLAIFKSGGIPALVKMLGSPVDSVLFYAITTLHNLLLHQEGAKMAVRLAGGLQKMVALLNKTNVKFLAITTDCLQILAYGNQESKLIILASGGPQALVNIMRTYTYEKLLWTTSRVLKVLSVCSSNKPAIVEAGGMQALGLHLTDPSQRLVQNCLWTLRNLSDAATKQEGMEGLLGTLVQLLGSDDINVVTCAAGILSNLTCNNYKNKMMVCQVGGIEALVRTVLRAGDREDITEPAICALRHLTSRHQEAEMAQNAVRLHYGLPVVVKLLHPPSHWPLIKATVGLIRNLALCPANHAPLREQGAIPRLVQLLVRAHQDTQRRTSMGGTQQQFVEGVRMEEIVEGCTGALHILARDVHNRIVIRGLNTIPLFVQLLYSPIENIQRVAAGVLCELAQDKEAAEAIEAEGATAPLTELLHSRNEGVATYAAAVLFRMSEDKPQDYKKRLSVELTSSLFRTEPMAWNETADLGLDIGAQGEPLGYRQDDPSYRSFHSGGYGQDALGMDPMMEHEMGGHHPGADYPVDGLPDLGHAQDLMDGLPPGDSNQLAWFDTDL

Solubility in PBS = type: physicochemical
Procedure, shortened: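 The PBS solution was ultracentrifuged and the supernatant analyzed by HPLC. Its peak area was divided by that of a 50 μM peptide DMSO reference injection and multiplied by 50 uM to give solubility.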

[2] = target: T2, beta-catenin/TCF4 engagement (Homo sapiens, UniProt P35222); assay: Nano-BRET target engagement assay (B-cat-Halo & TCF4-Luc in HEK293 cells); type: cell-based
T2 construct: expressed in transfected cells; host or cells: HEK293
T2 sequence (P35222 1-781): T1 sequence (P35222 1-781)

[3] = fluorescence polarization, read-out: beta-Catenin FP IC50
[4] = absolute IC50, read-out: NanoBRET Abs IC50

Row | Structure (SMILES) | IC50 [1, 3] | Solubility (Solubility in PBS) | IC50 [2, 4] | Solubility (Solubility in PBS; Solubility (uM)) | IC50 ([1]; beta-Catenin FP IC50, fluorescence polarization) | IC50 ([2]; NanoBRET Abs IC50, absolute IC50)
1 | CC(=O)N1CCC[C@]12CC=CCCCC1(CCCC=CCCCOC(=O)N3CC[C@@](C(=O)N[C@@H](Cc4ccccc4Cl)C(=O)N[C@@H](Cc4csc5ccccc45)C(=O)N[C@H](CO)[C@@H](C)O)(C3)NC(=O)[C@H]([C@@H](C)O)NC(=O)[C@H](Cc3ccccc3)NC(=O)[C@H](C)NC(=O)[C@H](C)NC(=O)[C@H]([C@@H](C)O)NC(=O)[C@H](CC(=O)O)NC1=O)NC(=O)[C@H](CC(C)(C)C)NC(=O)[C@H](CC(=O)O)NC2=O (stereo partly drawn) [I-1309, Ac-PL3-Asp-Npg-B5-Asp-Thr-Ala-Ala-Phe-Thr-PyrS2-2C1F-BztA-Thro1] | 59 nM | 10 µM (≈ 18.8 µg/mL) | 28600 nM | – | – | –
2 | CC(=O)N1CCC[C@]12CC=CCCCC1(CCCC=CCCCOC(=O)N3CC[C@@](C(=O)N[C@@H](Cc4ccsc4)C(=O)N[C@@H](Cc4csc5ccccc45)C(=O)N[C@@H](CCC(N)=O)C(N)=O)(C3)NC(=O)[C@H](CC(C)C)NC(=O)[C@H](Cc3ccccc3C#N)NC(=O)[C@H](C)NC(=O)[C@H](C)NC(=O)[C@H](CC(=O)O)NC(=O)[C@H](CC(=O)O)NC1=O)NC(=O)[C@H](CC(C)(C)C)NC(=O)[C@H](CC(=O)O)NC2=O (stereo partly drawn) [I-1200, Ac-PL3-Asp-Npg-B5-Asp-Asp-Ala-Ala-2CNF-Leu-PyrS2-3Thi-BztA-Gln-NH2] | 99 nM | – | > 20000 nM | 48 µM (≈ 93.2 µg/mL) | – | –
3 | CC(=O)N1CCC[C@]12CC=CCCCC1(CCCC=CCCCOC(=O)N3CC[C@@](C(=O)N[C@@H](Cc4ccccc4Cl)C(=O)N[C@@H](Cc4csc5ccccc45)C(=O)N[C@@H](C(N)=O)[C@H](C)O)(C3)NC(=O)[C@H](CC(C)C)NC(=O)[C@H](Cc3ccccc3)NC(=O)[C@H](C)NC(=O)[C@H](C)NC(=O)[C@H](CC(=O)O)NC(=O)[C@H](CC(=O)O)NC1=O)NC(=O)[C@H](Cc1ccccc1)NC(=O)[C@H](CC(=O)O)NC2=O (stereo partly drawn) [I-1146, Ac-PL3-Asp-Phe-B5-Asp-Asp-Ala-Ala-Phe-Leu-PyrS2-2C1F-BztA-dThr-NH2] | 33 nM | – | > 20000 nM | 18 µM (≈ 34.9 µg/mL) | – | –
4 | CC(=O)N1CCC[C@]12CC=CCCCC1(CCCC=CCCCOC(=O)N3CC[C@@](C(=O)N[C@@H](Cc4ccccc4C#N)C(=O)N[C@@H](Cc4csc5ccccc45)C(=O)N[C@@H](CCC(N)=O)C(N)=O)(C3)NC(=O)[C@H](CC(C)C)NC(=O)[C@H](Cc3ccccc3)NC(=O)[C@H](C)NC(=O)[C@H](C)NC(=O)[C@H](CC(=O)O)NC(=O)[C@H](CC(=O)O)NC1=O)NC(=O)[C@H](CC(C)(C)C)NC(=O)[C@H](CC(=O)O)NC2=O (stereo partly drawn) [I-1203, Ac-PL3-Asp-Npg-B5-Asp-Asp-Ala-Ala-Phe-Leu-PyrS2-2CNF-BztA-Gln-NH2] | 16 nM | 50 µM (≈ 96.8 µg/mL) | 10000 nM | – | – | –
5 | CC(=O)N1CCC[C@]12CC=CCCCC1(CCCC=CCCCOC(=O)N3CC[C@@](C(=O)N[C@@H](Cc4ccccc4Cl)C(=O)N[C@@H](Cc4csc5ccccc45)C(=O)N[C@@H](C(N)=O)[C@H](C)O)(C3)NC(=O)[C@H](CO)NC(=O)[C@H](Cc3ccccc3)NC(=O)[C@H](C)NC(=O)[C@H](C)NC(=O)[C@H](CC(=O)O)NC(=O)[C@H](CC(=O)O)NC1=O)NC(=O)[C@H](Cc1ccccc1)NC(=O)[C@H](CC(=O)O)NC2=O (stereo partly drawn) [I-1142, Ac-PL3-Asp-Phe-B5-Asp-Asp-Ala-Ala-Phe-Ser-PyrS2-2C1F-BztA-dThr-NH2] | 22 nM | – | > 20000 nM | 46 µM (≈ 88 µg/mL) | – | –
6 | CC(=O)N1CCC[C@]12CC=CCCCC1(CCCC=CCCCOC(=O)N3CC[C@@](C(=O)N[C@@H](Cc4ccccc4Cl)C(=O)N[C@@H](Cc4csc5ccccc45)C(=O)N[C@H](CO)[C@@H](C)O)(C3)NC(=O)[C@H]([C@@H](C)O)NC(=O)[C@H](Cc3ccccc3)NC(=O)[C@H](C)NC(=O)[C@H](C)NC(=O)[C@H](CC(=O)O)NC(=O)[C@H](CC(=O)O)NC1=O)NC(=O)[C@H](CC1CCCCC1)NC(=O)[C@H](CC(=O)O)NC2=O (stereo partly drawn) [I-1312, Ac-PL3-Asp-Cha-B5-Asp-Asp-Ala-Ala-Phe-Thr-PyrS2-2C1F-BztA-Thro1] | 14 nM | – | 16100 nM | 46 µM (≈ 88.3 µg/mL) | – | –
7 | CC(=O)N1CCC[C@]12CC=CCCCC1(CCCC=CCCCOC(=O)N3CC[C@@](C(=O)N[C@@H](Cc4ccccc4Cl)C(=O)N[C@@H](Cc4csc5ccccc45)C(=O)N[C@@H](CO)C(N)=O)(C3)NC(=O)[C@H]([C@@H](C)O)NC(=O)[C@H](Cc3ccccc3)NC(=O)[C@H](CC(C)C)NC(=O)[C@H](C)NC(=O)[C@H](CC(=O)O)NC(=O)[C@H](CC(=O)O)NC1=O)NC(=O)[C@H](Cc1ccccc1)NC(=O)[C@H](CC(=O)O)NC2=O (stereo partly drawn) [I-1157, Ac-PL3-Asp-Phe-B5-Asp-Asp-Ala-Leu-Phe-Thr-PyrS2-2C1F-BztA-Ser-NH2] | 36 nM | – | > 20000 nM | 15 µM (≈ 29.3 µg/mL) | – | –
8 | CC(=O)N1CCC[C@]12CC=CCCCC1(CCCC=CCCCOC(=O)N3CC[C@@](C(=O)N[C@@H](Cc4ccccc4)C(=O)N[C@@H](Cc4csc5ccccc45)C(=O)N[C@@H](CO)C(N)=O)(C3)NC(=O)[C@H]([C@@H](C)O)NC(=O)[C@H](Cc3ccccc3)NC(=O)[C@H](C)NC(=O)[C@H](CC(C)C)NC(=O)[C@H]([C@@H](C)O)NC(=O)[C@H](CC(=O)O)NC1=O)NC(=O)[C@H](CC(C)(C)C)NC(=O)[C@H](CC(=O)O)NC2=O (stereo partly drawn) [I-1264, Ac-PL3-Asp-Npg-B5-Asp-Thr-Leu-Ala-Phe-Thr-PyrS2-Phe-BztA-Ser-NH2] | – | 10 µM (≈ 18.9 µg/mL) | – | – | 157 nM | > 20000 nM
9 | CC(=O)N1CCC[C@]12CC=CCCCC1(CCCC=CCCCOC(=O)N3CC[C@@](C(=O)N[C@@H](Cc4c(F)c(F)c(F)c(F)c4F)C(=O)N[C@@H](Cc4csc5ccccc45)C(=O)N[C@@H](CCC(N)=O)C(N)=O)(C3)NC(=O)[C@H](CC(C)C)NC(=O)[C@H](Cc3ccccc3)NC(=O)[C@H](C)NC(=O)[C@H](C)NC(=O)[C@H](CC(=O)O)NC(=O)[C@H](CC(=O)O)NC1=O)NC(=O)[C@H](CC(C)(C)C)NC(=O)[C@H](CC(=O)O)NC2=O (stereo partly drawn) [I-1185, Ac-PL3-Asp-Npg-B5-Asp-Asp-Ala-Ala-Phe-Leu-PyrS2-Pff-BztA-Gln-NH2] | 203 nM | – | 26900 nM | 33 µM (≈ 66 µg/mL) | – | –
10 | CC(=O)N1CCC[C@]12CC=CCCCC1(CCCC=CCCCOC(=O)N3CC[C@@](C(=O)N[C@@H](Cc4ccccc4F)C(=O)N[C@@H](Cc4csc5ccccc45)C(=O)N[C@@H](CCC(N)=O)C(N)=O)(C3)NC(=O)[C@H](Cc3ccccc3)NC(=O)[C@H](Cc3ccccc3)NC(=O)[C@H](C)NC(=O)[C@H](C)NC(=O)[C@H](CC(=O)O)NC(=O)[C@H](CC(=O)O)NC1=O)NC(=O)[C@H](CC(C)(C)C)NC(=O)[C@H](CC(=O)O)NC2=O (stereo partly drawn) [I-1322, Ac-PL3-Asp-Npg-B5-Asp-Asp-Ala-Ala-Phe-Phe-PyrS2-2FF-BztA-Gln-NH2] | 11 nM | – | 9100 nM | 33 µM (≈ 64.8 µg/mL) | – | –
11 | CC(=O)N1CCC[C@]12CC=CCCCC1(CCCC=CCCCOC(=O)N3CC[C@@](C(=O)N[C@@H](Cc4ccccc4Cl)C(=O)N[C@@H](Cc4csc5ccccc45)C(=O)N[C@@H](C(N)=O)[C@H](C)O)(C3)NC(=O)[C@H](CO)NC(=O)[C@H](Cc3ccccc3)NC(=O)[C@H](C)NC(=O)[C@H](C)NC(=O)[C@H](CC(=O)O)NC(=O)[C@H](CC(=O)O)NC1=O)NC(=O)[C@H](CC1CCCCC1)NC(=O)[C@H](CC(=O)O)NC2=O (stereo partly drawn) [I-1136, Ac-PL3-Asp-Cha-B5-Asp-Asp-Ala-Ala-Phe-Ser-PyrS2-2C1F-BztA-dThr-NH2] | 16 nM | – | 14900 nM | 40 µM (≈ 76.7 µg/mL) | – | –
12 | CC(=O)N1CCC[C@]12CC=CCCCC1(CCCC=CCCCOC(=O)N3CC[C@@](C(=O)N[C@@H](Cc4ccccc4Cl)C(=O)N[C@@H](Cc4csc5ccccc45)C(=O)N[C@@H](CC(C)C)C(N)=O)(C3)NC(=O)[C@H]([C@@H](C)O)NC(=O)[C@H](Cc3ccccc3)NC(=O)[C@H](C)NC(=O)[C@H](CCCCNC(C)C)NC(=O)[C@H](CC(=O)O)NC(=O)[C@H](CC(=O)O)NC1=O)NC(=O)[C@H](CC(C)(C)C)NC(=O)[C@H](CC(=O)O)NC2=O (stereo partly drawn) [I-1274, Ac-PL3-Asp-Npg-B5-Asp-Asp-iPrLys-Ala-Phe-Thr-PyrS2-2C1F-BztA-Leu-NH2] | 13 nM | 10 µM (≈ 20.2 µg/mL) | > 20000 nM | – | – | –
13 | CC(=O)N1CCC[C@]12CC=CCCCC1(CCCC=CCCCOC(=O)N3CC[C@@](C(=O)N[C@@H](Cc4ccccc4F)C(=O)N[C@@H](Cc4csc5ccccc45)C(=O)N[C@@H](CCC(N)=O)C(N)=O)(C3)NC(=O)[C@H](CC(C)C)NC(=O)[C@H](Cc3ccccc3)NC(=O)[C@H](C)NC(=O)[C@H](C)NC(=O)[C@H](CC(=O)O)NC(=O)[C@H](CC(=O)O)NC1=O)NC(=O)[C@H](CC(C)(C)C)NC(=O)[C@H](CC(=O)O)NC2=O (stereo partly drawn) [I-1321, Ac-PL3-Asp-Npg-B5-Asp-Asp-Ala-Ala-Phe-Leu-PyrS2-2FF-BztA-Gln-NH2] | 8 nM | – | 10900 nM | 48 µM (≈ 92.6 µg/mL) | – | –
